Data reported in patent US11077087B2, “Compositions comprising dihydroquercetin for use in methods for treating herpes” (BIONOOX SUISSE SA, priority 2015, dated 2021).

What was measured:
Format in all cases: cell-based
NIH-3T3 fibroblasts = test: NIH-3T3 fibroblast proliferation, MTT assay; details: increasing DHQ concentrations
Protocol: The NIH 3T3 cell line was purchased from the ATCC (CRL1658). Cell lines are grown in Dulbecco's Modified Eagles' Medium (DMEM) supplemented with 10% heat inactivated newborn calf serum, 100 UI/mL penicillin and 100 μg/mL streptomycin (all from Gibco BRL) at 37° C. in a humidified 5% CO2 atmosphere. DHQ is dissolved in DMSO. Cells are cultured during 48 hours in the absence or in the presence of various DHQ concentrations. NIH-3T3 fibroblasts are immortalized cells which mimic the inflammatory phenotype assessed by the abundance of actin stress fibers and high contractility.
The effects of DHQ on the growth of NIH-3T3 cells are determined using the 3-(4,5-dimetthylthiazol-2-yl)-2,5-diphenyltetrazolium bromide (MTT) assay. Briefly, cells are plated on 96 well plates at 4,000 cells per well with increasing DHQ concentrations. After 72 hours of incubation with the drug, medium is removed and replaced by complete medium+MTT (10% v/v). After 3 hours of incubation, formazan crystals are dissolved in buffer containing 10% SDS (w/v, Bio-Rad), 50% Dimethyl formamide (Sigma), pH 4.7. Absorbance of reduced formazan is measured at 580 nm. Results are presented in FIG. 5: 100% of MTT reduced is attributed to the measure performed in absence of DHQ.

neutrophils [1] = test: ROS production by neutrophils triggered by PMA, luminol chemiluminescence; details: for Integral (total chemiluminescence counts, total ROS production) / Peak max / Slope max / T. Slope max / T. half (rise) / T. max (peak): PMA 100 ng/mL; for Integral (total chemiluminescence counts, total ROS production): 22.21 min
Protocol: (§1) PMA (12-O-tetradecanoyl-phorbol-13-acetate, Consolidated Midland Corp., Brewster, N.Y.) is dissolved at 1 mg/ml in dimethyl sulfoxide. This stock solution maintains full biological activity for several months when stored at […] in the dark. Unless otherwise specified, polymorphonuclear neutrophils (PMN), 10^6/ml in BS-H, are put into plastic centrifuge tubes (Falcon No. 2070, Falcon Labware, Div. of Becton, Dickinson & Co., Oxnard, Calif.) and brought to 37° C. PMA stock solution is added to provide a final concentration of 100 ng/ml of PMA. “Resting” (control) cells are exposed to […] dimethyl sulfoxide. A chemiluminescence (using luminol) method is used to measure Reactive Oxygen species (ROS) production (Dang et al, J Clin Invest. 2006, 116(7):2033-43; Boussetta et al, Blood. 2010, 116(26):5795-802). Superoxide production is measured by the superoxide dismutase (SOD)-inhibitable ferricytochrome c reduction assay.
Neutrophils are triggered by PMA (100 ng/mL) in the presence of different concentrations of DHQ (0, 1, 10 and 100 μM) at 37° C. in Hanks buffer containing 10 μM luminol and chemiluminescence is measured by a chemiluminometer. Total chemiluminescence counts during 22.21 min. (integrals) corresponding to total ROS production are determined.

[2] = system: polymorphonuclear neutrophils; test: Superoxide production by neutrophils, SOD-inhibitable ferricytochrome c reduction assay
Protocol: as §1
When activated by opsonized bacteria, zymozan, fMLP (Formyl-Methionyl-Leucyl-Phenylalanine) or PMA (phorbol myristate acetate), neutrophils undergo an oxidative burst resulting in the production of superoxide anion and subsequent hydrogen peroxide. The oxidative burst is mainly mediated by the NADPH oxidase activation, enzyme responsible of the superoxide anion production. […] This effect results either from the direct anion superoxide scavenging or from the inhibition of NADPH oxidase activation.

neutrophils [3] = test: ROS production by neutrophils triggered by fMLP, luminol chemiluminescence; details: for Integral (total chemiluminescence counts, total ROS production): 22.21 min
Protocol: Neutrophils (5×10^5) are suspended in 0.5 mL of Hanks balanced salt solution containing 10 μM luminol at 37° C. The cells are then stimulated with 10^−6M fMLP (N-formylmethionyl-leucyl-phenylalanine). Chemiluminescence is recorded with a luminometer (Berthold-Biolumat LB937). Similarly, neutrophils were triggered by fMLP (10^−6 M) in the presence of different concentrations of DHQ (0, 1, 10 and 100 μM) at 37° C. in Hanks buffer containing 10 μM luminol and chemiluminescence was measured by a chemiluminometer. Total chemiluminescence counts during 22.21 min. (integrals) corresponding to total ROS production were determined.

human mast cells = test: Mast cell degranulation (IgE/anti-IgE), beta-hexosaminidase release
From the text: Pure populations of human mast cells (HMC) are obtained by long-term culture of human normal hematopoietic progenitors (CD34^+ cells) in the continuous presence of Stem Cell Factor (SCF). Sources of these CD34^+ cells are mainly bone marrow, cord blood or peripheral blood. Usually, mononuclear cells from bone marrow and cord blood contain 0.5-1% of CD34^+ cells, whereas peripheral blood contains less than 0.1% of CD34^+ cells. Hematopoietic progenitor cells can be rapidly and efficiently enriched to a purity of about 85-98% using positive selection of magnetically labeled CD34^+ cells. Hematopoietic progenitor cells are then magnetically labeled using MACS CD34 MicroBeads. The magnetically labeled cells are enriched on positive selection columns in the magnetic field. Mononuclear cells from peripheral blood (PBMC), cord blood, or bone marrow may otherwise be obtained by density gradient centrifugation over Ficoll Paque®. Fractionation methods for producing mast cells are described in the art (see for instance Arock et al., 2008, Methods in Molecular biology 415: 241-254). Mast cell degranulation was induced by sequential treatment of mast cell by IgE, then by anti-IgE antibodies. Degranulation was subsequently measured by evaluating the release of beta-hexosaminidase, 1 h after IgE stimulation (see FIG. 4).

[4] = system: polymorphonuclear neutrophils; test: Oxygen consumption of polymorphonuclear neutrophils triggered by PMA and fMLP; details: data not shown
[5] = fMLP 10^−6 M, DHQ 1 μM (inferred)
[6] = fMLP 10^−6 M, DHQ 10 μM (inferred)
[7] = fMLP 10^−6 M, DHQ 100 μM (inferred)

What does the source list for `O=C1c2c(O)cc(O)cc2OC(c2ccc(O)c(O)c2)C1O` (stereo not shown) [DHQ]?
cell viability of NIH-3T3 cells (extent of MTT reduced) (NIH-3T3 fibroblasts): reduced; inhibition at 1 µM (neutrophils [1]; Neutrophil, neutrophils activated by PMA, DHQ 1 μM): ~80%; Integral (total chemiluminescence counts, total ROS production) (neutrophils [1]; DHQ 1 μM (line not labelled, concentration inferred)): 4.509E+08; Integral (total chemiluminescence counts, total ROS production) (neutrophils [1]; DHQ 10 μM (line not labelled, concentration inferred)): 2.0172E+08; Integral (total chemiluminescence counts, total ROS production) (neutrophils [1]; DHQ 100 μM (line not labelled, concentration inferred)): 3.576E+07; Peak max (neutrophils [1]; DHQ 1 μM (inferred)): 2.430E+07 cpm; Slope max (neutrophils [1]; DHQ 1 μM (inferred)): 9.790E+06 cpm; T. Slope max (neutrophils [1]; DHQ 1 μM (inferred)): 1.78; T. half (rise) (neutrophils [1]; DHQ 1 μM (inferred)): 2.44; T. max (peak) (neutrophils [1]; DHQ 1 μM (inferred)): 11.77; Peak max (neutrophils [1]; DHQ 10 μM (inferred)): 1.134E+07 cpm; Slope max (neutrophils [1]; DHQ 10 μM (inferred)): 4.380E+06 cpm; T. Slope max (neutrophils [1]; DHQ 10 μM (inferred)): 1.55; T. half (rise) (neutrophils [1]; DHQ 10 μM (inferred)): 2.22; T. max (peak) (neutrophils [1]; DHQ 10 μM (inferred)): 9.55; Peak max (neutrophils [1]; DHQ 100 μM (inferred)): 2.260E+06 cpm; Slope max (neutrophils [1]; DHQ 100 μM (inferred)): 1.033E+06 cpm; T. Slope max (neutrophils [1]; DHQ 100 μM (inferred)): 4.66; T. half (rise) (neutrophils [1]; DHQ 100 μM (inferred)): 4.89; T. max (peak) (neutrophils [1]; DHQ 100 μM (inferred)): 11.55; cytochrome c reduction (anion superoxide production) ([2]; +PMA, DHQ 1 μM): 0.110 dDO/min; cytochrome c reduction (anion superoxide production) ([2]; +PMA, DHQ 10 μM): 0.070 dDO/min; cytochrome c reduction (anion superoxide production) ([2]; +PMA, DHQ 100 μM): 0.021 dDO/min; cytochrome c reduction (anion superoxide production) ([2]; +fMLP, DHQ 1 μM): 0.144 dDO/min; cytochrome c reduction (anion superoxide production) ([2]; +fMLP, DHQ 10 μM): 0.105 dDO/min; cytochrome c reduction (anion superoxide production) ([2]; +fMLP, DHQ 100 μM): 0.040 dDO/min; cytochrome c reduction (anion superoxide production) ([2]; resting neutrophils, DHQ 1 μM): 0.000 dDO/min; cytochrome c reduction (anion superoxide production) ([2]; resting neutrophils, DHQ 10 μM): 0.036 dDO/min; cytochrome c reduction (anion superoxide production) ([2]; resting neutrophils, DHQ 100 μM): 0.086 dDO/min; inhibition at 1 µM (neutrophils [3]; Neutrophil, neutrophils activated by fMLP, DHQ 1 μM): ~80%; Integral (total chemiluminescence counts, total ROS production) (neutrophils [3]; fMLP 10^−6 M, DHQ 1 μM (line not labelled, concentration inferred)): 3.838E+08; Integral (total chemiluminescence counts, total ROS production) (neutrophils [3]; fMLP 10^−6 M, DHQ 10 μM (line not labelled, concentration inferred)): 1.867E+08; Integral (total chemiluminescence counts, total ROS production) (neutrophils [3]; fMLP 10^−6 M, DHQ 100 μM (line not labelled, concentration inferred)): 4.329E+07; Peak max (neutrophils [3]; [5]): 3.731E+07 cpm; Slope max (neutrophils [3]; [5]): 2.492E+07 cpm; T. Slope max (neutrophils [3]; [5]): 0.22; T. half (fall) (neutrophils [3]; [5]): 3.78; T. max (peak) (neutrophils [3]; [5]): 1.33; Peak max (neutrophils [3]; [6]): 1.770E+07 cpm; Slope max (neutrophils [3]; [6]): 1.206E+07 cpm; T. Slope max (neutrophils [3]; [6]): 0.22; T. half (fall) (neutrophils [3]; [6]): 3.55; T. max (peak) (neutrophils [3]; [6]): 1.33; Peak max (neutrophils [3]; [7]): 2.533E+06 cpm; Slope max (neutrophils [3]; [7]): 1.464E+06 cpm; T. Slope max (neutrophils [3]; [7]): 2.00; T. half (rise) (neutrophils [3]; [7]): 1.55; T. max (peak) (neutrophils [3]; [7]): 6.00; inhibition at 10 µM (human mast cells; Homo sapiens, Mast cell, DHQ 10 μM, beta-hexosaminidase release 1 h after IgE stimulation): ≤ 50%; inhibition at 100 µM (human mast cells; Homo sapiens, Mast cell, DHQ 100 μM, beta-hexosaminidase release 1 h after IgE stimulation): 80%; inhibitory activity on degranulation compared with reference molecules (human mast cells; versus kinase inhibitors and chromoglycate): superior to kinase inhibitors and chromoglycate; oxygen consumption of polymorphonuclear neutrophils [4]: strongly inhibits
